{
  "source": "patent US5648366A",
  "about": "“Substituted pyrrolidin-3-yl-alkyl-piperidines” (Merrell Pharmaceuticals Inc., priority 1995, dated 1997)",
  "target": "T1, NK2 receptor (Bos taurus, UniProt P05363)",
  "T1 construct": "expressed in transfected cells; host or cells: SKLKB82#3 cells (murine B82 fibroblasts by own knowledge)",
  "T1 sequence (P05363 1-384)": "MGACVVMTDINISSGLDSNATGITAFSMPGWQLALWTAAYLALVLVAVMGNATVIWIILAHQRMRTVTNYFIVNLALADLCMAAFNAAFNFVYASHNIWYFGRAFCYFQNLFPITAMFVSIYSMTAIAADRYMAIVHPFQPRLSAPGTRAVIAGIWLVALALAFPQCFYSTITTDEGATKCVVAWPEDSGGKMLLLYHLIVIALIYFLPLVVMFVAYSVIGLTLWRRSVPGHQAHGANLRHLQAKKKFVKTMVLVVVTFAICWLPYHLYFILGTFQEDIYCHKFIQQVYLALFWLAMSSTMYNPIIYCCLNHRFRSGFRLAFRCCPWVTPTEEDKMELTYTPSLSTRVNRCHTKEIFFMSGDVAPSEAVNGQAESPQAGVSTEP",
  "assay": "Antagonism of NK2 receptor mediated (NKA-induced) phosphatidylinositol turnover in SKLKB82#3 cells",
  "format": "cell-based",
  "method": "ANTAGONISM OF NK1 AND NK2 RECEPTOR MEDIATED PHOSPHATID[…]\nTachykinin-mediated inositol phosphate accumulation was measured in UC11 or SKLKB82#3 cells in the presence and absence of NK1 or NK2 receptor antagonists, respectively. Tissues were incubated in Krebs-Henseleit buffer at 37° C. with 95% O2 -5% CO2 gassing. Tissues were then incubated with fresh buffer containing 100 μCi of myo-[2-^3 H(N)] inositol at 37° C. for 60 min with gentle gassing. After washing twice in 5 ml room temperature buffer containing 10 mM LiCl, tissues were incubated for 30 min at room temperature with a buffer change at 15 min. Buffer was removed and Krebs-Henseleit buffer (containing 40 μg/ml bacitracin, 4 μg/ml each of leupeptin and chymostatin, 0.1% bovine serum albumin and 10 mM each of thiorphan and LiCl) added. After 15 min, SP was added to UC11 cells or NKA to SKLKB82#3 cells at various concentrations to start the reaction. After incubation for 60 min at room temperature the reaction was terminated by addition of 930 μl chloroform: methanol (1:2 by volume) to each tube, followed by 310 μl chloroform and 310 μl doubly distilled water. Samples were vortexed, centrifuged, and 0.9 ml of the aqueous (top) phase removed and added to 2 ml ddH2 O. The mixture was vortexed and loaded onto a 50% Bio-Rad AG 1-X8 (formate form, 100-200 mesh) exchange column (Bio-Rad Laboratories, Hercules, Calif.). The columns were washed, in order, with: 1) 10 ml doubly distilled water, 2) 5 ml of 5 mM disodium tetraborate/60 mM sodium formate, and 3) 5 ml of 1M ammonium formate/0.1M formic acid. The third elution was collected and 1 ml counted in 7 ml scintillation fluid. A 50 μl aliquot of the organic (bottom) phase was removed, dried in a scintillation vial and counted in 7 ml scintillation fluid.\nThe ratio of DPM in the aqueous phase aliquot (total inositol phosphates) to the DPM in the 50 μl organic phase aliquot (total [^3 H]inositol incorporated) was calculated for each sample. Data are expressed as a percent of agonist-induced accumulation of [^3 H]-inositol phosphates over basal levels. The ratios in the presence of test compound and/or standards were compared to the ratios for control samples (i.e. no stimulating agonist). Dose-response graphs were constructed and the abilities of the test compounds to inhibit tachykinin-induced phosphatidyinositol turnover determined with the aid of a computer program. […] Data is expressed as percent stimulation of total inositol phosphate accumulation over basal levels and normalized to the maximum response produced by SP. […] Schild analysis is performed using dose response curves (such as those presented in FIGS. 1a and 1b) to obtain a value indicative of the strength of a competitive antagonist and is expressed as the pA2, which is the negative logarithm of the molar concentration of antagonist which reduces the effect of a dose of agonist to one-half of that expected at the dose of agonist.",
  "data": [
    {"smiles": "COc1cc(C(=O)N2CCC(CCN3CCC(C(N)=O)(c4ccccc4)CC3)(c3ccc(Cl)c(Cl)c3)C2)cc(OC)c1OC", "note": "(centres unmarked) [Example 3, 1-[2-[3-(3,4-dichloro-phenyl)-1-(3,4,5-trimethoxy-benzoyl)-pyrrolidin-3-yl]-ethyl]-4-phenyl-piperidine-4-carboxylic acid amide]", "values": [
      {"measurement": "antagonism of NKA induced PI turnover (in words, FIG. 1b)", "setting": "SKLKB82#3 cells", "value": "dose related antagonism"},
      {"measurement": "agonist activity, PI turnover in SKLKB82#3 cells (in words)", "setting": "compound alone", "value": "no agonist activity"}
    ]}
  ]
}
